Assays:
human HSC = assay: Proliferation of human HSCs treated with MC-MA375; type: cell-based; conditions: for Increase in HSC proliferation in response to MC-A375 (in words): 12.5 μM 30 min prior to MC-A375; for Proliferation of human HSC's treated with MC-MA375 (No. cells per well): 12.5 μM, 30 min before MC-MA375, 48 h, control 2550 ± 22, treatment alone 4400 ± 30
Experimental: isolation of primary human cultures of hepatic sinusoidal endothelial (HSE) hepatic stellate cells (HSCs). The primary cultures of human HSE and HSC cells were obtained by non-tumoral hepatic tissue serial profusion with collagenase and pronase solutions, followed by Nycodenz gradient and seeded on 24-well plates (0.5×10^4 cells/cm^2) in DMEM. supplemented with 10% FBS.
HSC proliferation test. Primary cultured human HSC cultures were seeded (2500 cells/well/200 μl) in DMEM with 10% FBS. Once adhered, they were washed to remove the FBS and were incubated with fresh medium in the presence or absence of 12.5 μM of the azaresveratrol compound (see Table 3). Thirty (30) minutes later, conditioned media obtained from MA375 cells were added to some wells, and the plates were incubated for 48 hours in humid incubator at 37° C. with 5% CO2. Upon completion of the incubation time, the cells were fixed and were processed for counting just as previously described hereinabove.

MB16 cells = assay: MB16 hepatic metastasis test after intrasplenic injection; type: in vivo, C57BL/6J mice; conditions: 1 mg/Kg/day nasogastrically; for Reduction of the mean density of hepatic metastases: daily, vs control animals, P<0.01; for No. portal metases/No. sinusoidal metastasis (ratio in brackets) / Percentage of focal points w/cavitation (% of total no. of metastatic focal points) / No. portal metases / No. sinusoidal metastasis / Volume of hepatic metastasis (mm^3) / Hepatic focal point density (No. focal points/100 mm^3) / Metastatic cell proliferation index (% cells positive to Ki67 antigen) / Length of angiogenic vessels (μm): day 12; for No. portal metases/No. sinusoidal metastasis (ratio in brackets): control 1; for Percentage of focal points w/cavitation (% of total no. of metastatic focal points): control 13.5 ± 5.0; for No. portal metases / No. sinusoidal metastasis: control 30; for Volume of hepatic metastasis (mm^3): control 60.0 ± 7.5; for Hepatic focal point density (No. focal points/100 mm^3): control 60.0 ± 11; for Metastatic cell proliferation index (% cells positive to Ki67 antigen): control 71.0 ± 5.0; for Length of angiogenic vessels (μm): control 175.0 ± 10
Experimental: MB16 Hepatic Metastasis Test using C57 BL/6J mice (males 6-8 weeks of age) supplied by IFFA Credo (L'Arbreole, France). The care, maintenance and experimental conditions were carried out in accordance with that which is set forth under EEC Council Directive 86/609 (OJ L 358. 1, Dec. 12, 1987) and the NIH guide for the care and use of laboratory animals (NIH publication 85-23, 1985). In the experiments with the resveratrol and azaresveratrol compounds (Table 1), the animals (10 per group) received 1 mg/Kg/day of the compounds nasogastrically every day up to the time of sacrifice. In the experiments with the JE2:2 compound (FIG. 12), one group of mice (n=10) was given an intraperitoneal injection of 0.5 mg/kg of the JE2:2 compound dissolved in 0.1 ml of PBS. The control group (n=10), was given an intraperitoneal injection of PBS. One hour later, animals were anesthetized and were intrasplenically injected with MB16 cells (3×10^5 cells/mouse). The same treatments, at the same doses, were repeated on days 2, 3, 4, 8, 9, 10 and 11 following tumor injection.
Twelve (12) days later, the livers were removed and processed for the histological study. Firstly, they were fixed in a solution of zinc (0.5 g calcium acetate, 5 g zinc acetate, 5 g zinc chloride and 1000 ml tris buffer, pH 7.4) for 24 hours. Once fixed, they were dehydrated in alcohols of increasing concentrations, and paraffin block were included. Afterward, a minimum of nine (9) cuts 10 μm in thickness were made per liver, leaving a space of 300 μm between every 3 cuts and a 1 mm space between successive groups of 3 cuts. Once the sections had been obtained, they were processed and stained with hematoxylin-eosine. On the one hand, the number, mean diameter, area and position coordinates of each metastasis were quantified by means of an integrated image analysis system (Olympus Microimage 4.0 capture kit) connected to an Olympus BX51TF microscope. With obtained data, metastatic parameters (that is to say, the number of focal points per 100 mm^3 of hepatic tissue) and metastatic volume (that is to say, the volume of liver occupied by metastatic tissue) were calculated as described by Vidal-Vanaclocha et al. [cf. Vidal-Vanaclocha, F., Amézaga, C., Asumendi, A., Kaplanski, G. & Dinarello, C. A. “Interleukin-1 receptor blockade reduces the number and size of murine B 16 melanoma hepatic metastases”, Cancer Research, 1994, vol. 54, pp. 2667-2672]. On the other hand, more cuts were made in the same blocks, and a double marking with CD31 and desmine was performed to calculate the number and length of the angiogenic vessels within the metastases and also to study metastases according to their angiogenic pattern in portal-type expansive metastases (the angiogenic vessels surround the metastases) or sinusoidal type invasive metastases (containing an internal network of angiogenic capillaries). Another parameter that was quantified is the cavitated metastasis percentage. Lastly, immunohistochemical detection of Ki67 antigen was performed to assess the number of tumor cells which proliferated per unit of tumor surface.
To this end, the MB16 cells were intrasplenically injected in C57BL/6J mice (3×10^5 viable cells per animal resuspended in endotoxin-free sterile saline solution), 12 days after which the capacity thereof of development metastasis was determined.
One group of mice (n=7) were administered an intraperitoneal injection of JE2:2 (2.5 mg/kg) 1′ hour prior to tumor cell injection, and the same dose was repeated on days 2, 3, 4, 8, 9, 10 and 11 in following thereto. The group of control mice (n=7) was administered PBS.

Row | SMILES | Increase in HSC proliferation in response to MC-A375 (in words) (human HSC) | Proliferation of human HSC's treated with MC-MA375 (No. cells per well) (human HSC) | Reduction of the mean density of hepatic metastases (MB16 cells) [%] | No. portal metases/No. sinusoidal metastasis (ratio in brackets) (MB16 cells) | Percentage of focal points w/cavitation (% of total no. of metastatic focal points) (MB16 cells) [%] | No. portal metases (MB16 cells) | No. sinusoidal metastasis (MB16 cells) | Volume of hepatic metastasis (mm^3) (MB16 cells) | Hepatic focal point density (No. focal points/100 mm^3) (MB16 cells) | Metastatic cell proliferation index (% cells positive to Ki67 antigen) (MB16 cells) [%] | Length of angiogenic vessels (μm) (MB16 cells)
1 | Oc1ccc(C=Cc2cc(O)cc(O)c2)cc1 [resveratrol, reference compound] | abrogated | 2250 ± 100 | 50 | 3 | 41.5 ± 11 | 22.5 | 7.5 | 18.7 ± 7.5 | 30.0 ± 11 | 40.0 ± 5.0 | 88.0 ± 23
2 | Oc1ccc(/N=C/c2cc(O)cc(O)c2)cc1 [azaresveratrol, 5-((E)-(4-Hydroxyphenylimino)methyl)benzene-1,3-diol] | abrogated | 2600 ± 60 | 46 | 4.09 | 40.0 ± 10 | 22.5 | 5.5 | 24.0 ± 9.0 | 28.0 ± 10 | 35.0 ± 10 | 88.0 ± 21
